Measurements: BindingDB's records for doi:10.1016/j.bmcl.2004.01.051 (Pierre and Marie Curie University, 2004)

Columns and labels:
[1] = target: Cyclopropane-fatty-acyl-phospholipid synthase (Escherichia coli) (UniProt P0A9H7); assay: Inhibition constant against Escherichia coli cyclopropane fatty acid synthase
[2] = target: Cyclopropane-fatty-acyl-phospholipid synthase (Escherichia coli) (UniProt P0A9H7); assay: as above; remark: listed apart in the source

Sequence of Cyclopropane-fatty-acyl-phospholipid synthase (Escherichia coli) (P0A9H7 whole entry, looked up): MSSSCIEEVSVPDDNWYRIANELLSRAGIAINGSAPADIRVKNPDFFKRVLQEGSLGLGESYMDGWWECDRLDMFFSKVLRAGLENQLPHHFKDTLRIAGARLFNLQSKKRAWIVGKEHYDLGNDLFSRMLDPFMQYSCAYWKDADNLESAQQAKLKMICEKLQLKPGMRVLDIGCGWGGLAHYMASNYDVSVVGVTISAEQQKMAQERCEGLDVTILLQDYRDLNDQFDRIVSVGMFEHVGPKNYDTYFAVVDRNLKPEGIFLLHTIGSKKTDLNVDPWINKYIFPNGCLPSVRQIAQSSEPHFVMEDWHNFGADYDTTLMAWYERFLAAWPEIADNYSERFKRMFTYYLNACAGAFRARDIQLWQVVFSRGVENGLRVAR

Compound	Ki [1]	Ki [2]
C[S+](C)C[C@H]1O[C@@H](n2cnc3c(N)ncnc32)[C@H](O)[C@@H]1O	2500 µM	–
Nc1ncnc2c1ncn2[C@@H]1O[C@H](CSCCC(N)C(=O)O)[C@@H](O)[C@H]1O (stereo partly drawn) [2-Amino-4-[(2S,3S,4R,5R)-5-(6-amino-purin-9-yl)-3,4-dihydroxy-tetrahydro-furan-2-ylmethylsulfanyl]-butyric acid]	30 µM	–
Nc1ncnc2c1ncn2[C@@H]1O[C@H](C[S+]([O-])CC[C@H](N)C(=O)O)[C@@H](O)[C@H]1O (stereo partly drawn) [2-Amino-4-[(2S,3S,4R,5R)-5-(6-amino-purin-9-yl)-3,4-dihydroxy-tetrahydro-furan-2-ylmethanesulfinyl]-butyric acid]	50 µM	30 µM
Nc1ncnc2c1ncn2[C@@H]1O[C@H](CS(=O)(=O)CC[C@H](N)C(=O)O)[C@@H](O)[C@H]1O [2-Amino-4-[(2S,3S,4R,5R)-5-(6-amino-purin-9-yl)-3,4-dihydroxy-tetrahydro-furan-2-ylmethanesulfonyl]-butyric acid]	100 µM	–

More lines, now with the values ahead:

Ki [1]	Ki [2]	Compound
220 µM	–	CS(=O)(=O)C[C@H]1O[C@@H](n2cnc3c(N)ncnc32)[C@H](O)[C@@H]1O [(2R,3R,4S,5S)-2-(6-Amino-purin-9-yl)-5-methanesulfonylmethyl-tetrahydro-furan-3,4-diol]
150 µM	–	Nc1ncnc2c1ncn2[C@@H]1O[C@H](CSCC[C@H](N)C(=O)O)[C@@H](O)[C@H]1O [AdoHcy]
500 µM	–	C[S+]([O-])C[C@H]1O[C@@H](n2cnc3c(N)ncnc32)[C@H](O)[C@@H]1O (stereo partly drawn) [(2R,3R,4S,5S)-2-(6-Amino-purin-9-yl)-5-methanesulfinylmethyl-tetrahydro-furan-3,4-diol]
1500 µM	–	CSC[C@H]1O[C@@H](n2cnc3c(N)ncnc32)[C@H](O)[C@@H]1O [(2R,3R,4S,5S)-2-(6-aminopurin-9-yl)-5-(methylsulfanylmethyl)oxolane-3,4-diol]
